Results filed as inconclusive are left out. Calls of active or inactive are those of the source. No rule for the calls is given here.
Target: Protein AF-9 (Homo sapiens) (UniProt P42568)
Assay: AF9 binding to AF4 blockers, potency – biochemical, cherry-picked samples, plate reader, dose response (AID 720495)
Details: biochemical protein-protein interaction assay; for activity change, negative = inhibition: at 10 µM (top of the series)

Sequence of Protein AF-9 (Homo sapiens) (P42568 whole entry, looked up): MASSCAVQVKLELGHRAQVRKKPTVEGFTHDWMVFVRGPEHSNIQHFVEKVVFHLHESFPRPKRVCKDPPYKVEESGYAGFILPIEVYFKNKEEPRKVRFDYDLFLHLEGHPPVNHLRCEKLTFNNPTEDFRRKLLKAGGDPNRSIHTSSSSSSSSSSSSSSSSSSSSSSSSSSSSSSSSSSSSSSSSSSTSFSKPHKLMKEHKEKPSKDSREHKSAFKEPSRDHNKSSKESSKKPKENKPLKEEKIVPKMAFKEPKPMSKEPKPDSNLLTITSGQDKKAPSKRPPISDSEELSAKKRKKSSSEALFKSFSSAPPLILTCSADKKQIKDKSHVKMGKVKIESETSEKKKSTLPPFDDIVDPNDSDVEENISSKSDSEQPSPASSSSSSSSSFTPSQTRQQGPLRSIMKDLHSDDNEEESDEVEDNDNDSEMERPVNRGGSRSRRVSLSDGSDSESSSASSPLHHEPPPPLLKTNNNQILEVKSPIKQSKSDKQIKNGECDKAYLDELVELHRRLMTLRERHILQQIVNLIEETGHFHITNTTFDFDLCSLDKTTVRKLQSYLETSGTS

| Structure (SMILES) | activity change, negative = inhibition | AC50 |
| --- | --- | --- |
| CC1=NN(c2ccccc2)C(=O)/C1=C/C=C/c1ccc(N(C)C)cc1 | inactive |  |
| O=C(c1ccc(-c2cc(O)c3ncccc3c2)cc1)N1CCNCC1 |  | 0.426 µM |
| O=C1C(Cl)=CC(=Nc2ccc(O)cc2)C=C1Cl |  | 11.4 µM |
| COc1ccc(CN2CC3(C2)CN(Cc2ccc4c(c2)OCO4)[C@H](CO)c2[nH]c4cc(OC)ccc4c23)cc1 | inactive |  |
| CCOc1cc(CNc2cccc3[nH]c(C)nc23)ccc1OC | inactive |  |
| O=C(N/N=C/c1sc(N2CCCCC2)nc1-c1cccs1)C1CC1 | inactive |  |
| C(=C\c1ccncc1)/c1ccncc1 | inactive |  |
| CN(C)CCNc1nc2sc3c(c2c(=O)n1CCc1ccccc1)CCCCC3 | inactive |  |
| C[C@@H]1CN([C@H](C)CO)C(=O)c2c(c3ccccc3n2C)-c2ccccc2CO[C@@H]1CN(C)Cc1ccc2c(c1)OCCN2C | inactive |  |
| COc1ccc(N2CCN(CCCNC(=O)CCC(=O)N3CCOc4ccc(Cl)cc43)CC2)cc1 |  | 11.5 µM |
| NC(N)=N/N=C/c1cn(-c2ccccc2)nc1-c1cccs1 |  | 3.92 µM |
| CN(C)CC/C=C1\c2ccc(F)cc2Sc2cc(F)c(Cl)cc21 |  | 9.52 µM |
| CCN1CCN(c2ccc(N)cc2)CC1 |  | 1.54 µM |
| CN(C)CCNc1ncnc2c1sc1nc(-c3ccccc3)c3c(c12)CCCC3 |  | 6.89 µM |
| O=[N+]([O-])c1cc(/C=N/Nc2nc3ccccc3[nH]2)c(O)cc1O | inactive |  |
| COc1cccc(-c2sc3ccccc3c2-c2ccc(OCCN(C)C)cc2)c1 | inactive |  |
| COc1ccc(-n2cc(CNCCc3cnc[nH]3)c(-c3cccc(F)c3)n2)cc1 | inactive |  |
| COc1cc(O)c(C(CCN2CCN(c3ccccc3)CC2)c2ccc(N(C)C)cc2)c(OC)c1 (centres undefined) | inactive |  |
| CN1CCN(C(c2ccc(Br)cc2)c2cc(Cl)c3cccnc3c2O)CC1 (centres undefined) |  | 1.47 µM |
| COc1ccc(OC)c(C2=NOC(C(=O)Nc3c(C)n(C)n(-c4ccccc4)c3=O)C2)c1 (centres undefined) | inactive |  |
| CSc1ccc2c(c1)N(CCC1CCCCN1C)c1ccccc1S2 (centres undefined) |  | 6.31 µM |
| C[C@@H]1NC(=O)N[C@@H]1CCCCCC(=O)O |  | < 0.08 µM |
| COc1ccc(N2CCN(c3cc(C)nc4ccc(OC)cc34)CC2)cc1 | inactive |  |
| CN(C)c1ccc(N=Cc2cccn2C)cc1 |  | 0.83 µM |

| Structure (SMILES) | activity change, negative = inhibition | AC50 |
| --- | --- | --- |
| COc1ccccc1Nc1c2c(nc3ccc(N)cc13)CCCC2 | inactive |  |
| Cc1ccc(S(=O)(=O)NC(=O)Nc2ccc(N(C)C)cc2)cc1 | inactive |  |
| NC(N)=NCCCS(=O)(=O)Nc1ccc(Nc2c3ccccc3nc3cc([N+](=O)[O-])ccc23)cc1 |  | 2.85 µM |
| CCc1nc2ccc(C(=O)NC3CCN(Cc4ccccc4)CC3)cn2c1N(C)Cc1ccc(N(C)C)cc1 |  | 5.52 µM |
| c1ccc(C2=Nc3c(ccc4ccccc34)C(c3ccncc3)=NN2)cc1 | inactive |  |
| Cc1ncc(CO)c(/C=N/NC(=S)Nc2ccc(Cl)c(Cl)c2)c1O |  | 5.79 µM |
| c1ccc(N=Nc2ccc3cccccc2-3)cc1 |  | 0.232 µM |
| CCN(CC)c1ccc(C(=C2C=CC(=[N+](CC)CC)C=C2)c2ccccc2)cc1 |  | 0.685 µM |
| CC(=O)c1ccc(OCC(=O)Nc2ccc(N3CCCCC3)cc2)cc1 | inactive |  |
| COc1cc(N(C)C)ccc1C=c1c2ccccc2n2c1cc(-c1ccccc1)[n+]2C |  | 1.88 µM |
| O=C(N/N=C/c1c(O)ccc2ccccc12)c1ccc[n+](CCO)c1 |  | 0.257 µM |
| CC1NC(=O)NC1CCCCCC(=O)Nc1ccc(F)c(Cl)c1 (centres undefined) |  | < 0.08 µM |
| COc1cc2c(cc1N)-c1ccc(N)cc1C2=O | inactive |  |
| CN=c1scc(-c2ccccc2F)n1/N=C(\C)c1cccnc1 | inactive |  |
| O=C(/C(=N/N=C/c1ccc(O)c(O)c1)c1ccccc1)c1ccccc1 |  | 1.62 µM |
| O=c1[nH]c2ccccc2n1C1CCN(C(c2nnnn2C2CCCCC2)C2CC2)CC1 (centres undefined) |  | 11.1 µM |
| C#CCOCCOCCOCCNc1nc(N2CCN(C(=O)[C@H](CCCN=C(N)N)n3cc(C(N)[C@@H](C)CC)nn3)CC2)nc(N2CCN(C(=O)[C@H](CCCCN)n3cc([C@@H](N)CC(N)=O)nn3)CC2)n1 (some centres undefined) | inactive |  |
| Cc1cc(N=Nc2ccc(Cl)cc2)cc(CN2CCOCC2)c1O | inactive |  |
| Oc1ccccc1C=NCCN1CCN(CCN=Cc2ccccc2O)C1c1ccccc1O (centres undefined) | inactive |  |
| CN(C)CC/C=C1/c2ccc(F)cc2Sc2ccc(Cl)cc21 |  | 5.01 µM |
| Cc1ccc2c(c1)C1CN(C)CCC1N2Sc1ccccc1[N+](=O)[O-] (centres undefined) |  | 5.01 µM |
| CCOc1ccc(NC(=S)N(CCN2CCOCC2)Cc2ccc3c(c2)CCCN3CC)cc1 | inactive |  |
| CCN(CC)c1ccc(C(=C2C=CC(=[N+](CC)CC)C=C2)c2ccc(S(=O)(=O)O)cc2S(=O)(=O)[O-])cc1 |  | 4.29 µM |
| COc1ccc(CCNCc2cc(C)n(-c3ccc(OC)cc3)c2C)cc1 | inactive |  |

| Structure (SMILES) | activity change, negative = inhibition | AC50 |
| --- | --- | --- |
| Cc1ccc2nc(-c3ccccn3)c(NC3CCCC3)n2c1 | inactive |  |
| C/C(=N\Nc1nc2ccccc2[nH]1)c1ccc2c(c1)OCO2 | inactive |  |
| CCN1CCN(c2ccc(N)c(C)c2)CC1 | inactive |  |
| COc1ccc(/C=N/N2CCN(c3ccccc3OC)CC2)cc1Br | inactive |  |
| CC[n+]1c(/C=C/c2ccc(N(C)C)cc2)ccc2ccccc21 |  | 8.28 µM |
| COc1ccc(S(=O)(=O)/N=C2\C=C(Nc3ccc(O)cc3)C(=O)c3ccccc32)cc1 |  | 0.724 µM |
| COc1cccc(OCC(O)CN2CCC(CN3C(=O)c4cccc5cccc(c45)C3=O)CC2)c1 (centres undefined) | inactive |  |
| CNC[C@H](Cc1ccccc1)NC[C@@H](Cc1cccc2ccccc12)NCCc1ccc(C)cc1 |  | 10.1 µM |
| CCCC(=O)NC(c1ccc(N(C)C)cc1)c1ccc2cccnc2c1O (centres undefined) |  | 1.04 µM |
| COc1cc2c(c(OC)c1OC)-c1ccc(O)c(=O)cc1[C@@H](N)CC2 |  | 2.3 µM |
| Fc1ccc(-[n+]2nc(Nc3ccccc3)sc2-c2c(Cl)cccc2Cl)cc1 | inactive |  |
| Fc1ccc(C(c2ccc(F)cc2)N2CCN(C/C=C/c3ccccc3)CC2)cc1 | inactive |  |
| Oc1cc(NCCN2CCOCC2)cc2cccnc12 |  | 7.86 µM |
| N=C1C=CC(=C(c2ccc(N)cc2)c2ccc(N)cc2)C=C1 |  | 6.08 µM |
| CCN1/C(=C/C(C)=C/c2sc3ccccc3[n+]2CC)Sc2ccccc21 |  | 5.6 µM |
| Cc1cc(/C=N/n2c(COc3ccccc3C)nc3ccccc3c2=O)c(O)c([N+](=O)[O-])c1 | inactive |  |
| O=C1c2ccccc2NC(c2cccc([N+](=O)[O-])c2)N1O (centres undefined) |  | 11.2 µM |
| COc1ccc(-c2oc3ccccc3c(=O)c2OC(C)=O)cc1 | inactive |  |
| COc1ccc(C#Cc2ccc3c(c2)[C@H]2[C@H](CCN2C(=O)c2ccncc2)[C@@H](CO)N3)cc1 |  | 10.7 µM |
| Cc1ccn2c(Nc3ccc4c(c3)OCO4)c(-c3ccccn3)nc2c1 |  | 3.55 µM |
| CC(=NNC(=S)N1CCN(C2CCCCCC2)CC1)c1ccccn1 |  | 0.687 µM |
| CN1CCN(c2ccc(S(=O)(=O)N3CCCCC3)cc2NC(=O)/C=C/c2ccc(Cl)c([N+](=O)[O-])c2)CC1 | inactive |  |
| O=C1c2ccccc2-c2onc3ccc(N4CCCC4)c1c23 |  | 5.49 µM |
| CC(C)Nc1ccc(Nc2ccnc3cc4ccccc4cc23)cc1 |  | 2.45 µM |

| Structure (SMILES) | activity change, negative = inhibition | AC50 |
| --- | --- | --- |
| CN1CCN(CCCN2c3ccccc3Sc3ccc(C(F)(F)F)cc32)CC1 | inactive |  |
| C[C@@H]1CCCCO[C@H](CN(C)Cc2ccc(Cl)c(Cl)c2)[C@@H](C)CN([C@H](C)CO)C(=O)c2cc(N(C)C)ccc2O1 |  | 10.1 µM |
| Cc1cccc(-c2ccc3[nH]c4c(c3c2)CCN2C[C@H]3[C@H](C)ON(C)[C@H]3C[C@@H]42)c1 | inactive |  |
| C#CCOCCOCCOCCNc1nc(N2CCN(C(=O)[C@H](CCCCN)n3cc(CN)nn3)CC2)nc(N2CCN(C(=O)[C@H](CCCN=C(N)N)n3cc(C(N)[C@H](C)CC)nn3)CC2)n1 (some centres undefined) |  | 2.81 µM |
| CN(C)c1ccc(C=c2c3cc(O)ccc3n3c2cc(-c2ccccc2)[n+]3C)cc1 |  | 0.975 µM |
| Nc1[nH]n(-c2ccccc2)c(=O)c1N=Nc1ccc2c(c1)OCCO2 | inactive |  |
| C[C@H](CO)N1C[C@H](C)[C@@H](CN(C)Cc2ccc(Cl)c(Cl)c2)Oc2ccc(N(C)C)cc2CC1=O |  | 10.8 µM |
| CC(C)(c1ccccc1)c1ccc(OCC(O)CNC2CCN(Cc3ccccc3)CC2)cc1 (centres undefined) |  | 0.841 µM |
| Nc1ccc(N)c(C(=O)O)c1 | inactive |  |
| CN1CCN(C(c2ccc(C(F)(F)F)cc2)c2ccc3cccnc3c2O)CC1 (centres undefined) |  | 0.857 µM |
| C[C@H](CO)N1C[C@H](C)[C@H](CN(C)Cc2ccc(C(F)(F)F)cc2)OCCCC[C@H](C)Oc2ccc(N(C)C)cc2C1=O | inactive |  |
| S=C(c1ccc(-c2cccc(Cl)c2)o1)N1CCOCC1 | inactive |  |
| COc1ccc(N2CCN(CCCNC(=O)C(=O)c3c(C)n(C)c4ccccc34)CC2)cc1 | inactive |  |
| Cc1cc2c(OCC(O)CNC3CCCCC3)cccc2[nH]1 (centres undefined) | inactive |  |
| CN1CCN(c2ccc(N)cc2Cl)CC1 |  | 2.11 µM |
| CN(C)c1cc2c3ccccc3n(C)c2cc1N |  | 1.08 µM |
| CCOc1ccc(NCc2cccn2-c2nnc(N3CCC(C(=O)NCCCN4CCCCC4CC)CC3)s2)cc1 (centres undefined) |  | 4.01 µM |
| Cc1ccnc(NC(c2cccnc2)c2ccc3cccnc3c2O)c1 (centres undefined) |  | 0.808 µM |
| COc1ccc(C(CCNCc2ccc(N(C)C)cc2)C(C)C)cc1 (centres undefined) |  | 2.88 µM |
| C#CCOCCOCCOCCNc1nc(N2CCN(C(=O)C([C@@H](C)O)n3cc([C@@H](N)CCCCN)nn3)CC2)nc(N2CCN(C(=O)C([C@@H](C)O)n3cc([C@@H](N)CCCCN)nn3)CC2)n1 (some centres undefined) | inactive |  |
| CC(C)C1CC(CCNCc2ccc(N(C)C)cc2)(c2ccccc2)CCO1 (centres undefined) | inactive |  |
| CN(C)c1ccnc2c[cH-]cc12.[Fe].c1ccc(-[c-]2[c-](-c3ccccc3)[c-](-c3ccccc3)[c-](-c3ccccc3)[c-]2-c2ccccc2)cc1 (centres undefined) | inactive |  |
